Here are results for eight compounds from ChEMBL document CHEMBL5212743, “Selectivity Literature for EUbOPEN Chemogenomics Library wave 3” (2023).

Bounds are passed on as bounds.

Assay [1] addresses Epithelial discoidin domain-containing receptor 1 (Homo sapiens, UniProt Q08345). As to conditions: at 1 µM.
For assay [2], the target named is Discoidin domain-containing receptor 2 (Homo sapiens) (UniProt Q16832). Briefly: Selectivity interaction (KinomeScan (DiscoverX)) EUB0000132b DDR2. The following applies: at 1 µM.
Assay [3] addresses Mitogen-activated protein kinase kinase kinase 20 (Homo sapiens) (UniProt Q9NYL2). Briefly: Selectivity interaction (KinomeScan (DiscoverX)) EUB0000132b MAP3K20. The following applies: at 1 µM.
Assay [4] addresses Myosin light chain kinase family member 4 (Homo sapiens) (UniProt Q86YV6). Briefly: Selectivity interaction (KinomeScan (DiscoverX)) EUB0000132b MYLK4. The following applies: at 1 µM.
Assay [5] has as its target Ribosomal protein S6 kinase alpha-6 (Homo sapiens) (UniProt Q9UK32). The assay can be described thus: Selectivity interaction (KinomeScan (DiscoverX)) EUB0000132b RPS6KA6. The following applies: at 1 µM.
For assay [6], the system named is Mast/stem cell growth factor receptor Kit (Homo sapiens), P10721 [V559D]. The assay can be described thus: (§1) Selectivity interaction (KinomeScan (DiscoverX)) EUB0000132b KIT. The following applies: at 1 µM.
The target in assay [7] is Mast/stem cell growth factor receptor Kit (Homo sapiens, UniProt P10721). The assay is described as §1. As to conditions: at 1 µM.
Assay [8] addresses Tyrosine-protein kinase ABL2 (Homo sapiens) (UniProt P42684). The assay can be described thus: Selectivity interaction (KinomeScan (DiscoverX)) EUB0000686a ABL2. As to conditions: at 1 µM.
Assay [9] deals with Serine/threonine-protein kinase Nek1 (Homo sapiens) (UniProt Q96PY6). Briefly: Selectivity interaction (KinomeScan (DiscoverX)) EUB0000711a NEK1. As to conditions: at 100 nM.
Assay [10] deals with Leucine-rich repeat serine/threonine-protein kinase 2 (Homo sapiens, UniProt Q5S007). The assay can be described thus: Selectivity interaction (KinomeScan (DiscoverX)) EUB0000711a LRRK2. As to conditions: at 100 nM.
In assay [11] the target is Serine/threonine-protein kinase 38-like (Homo sapiens, UniProt Q9Y2H1). Briefly: Selectivity interaction (KinomeScan (DiscoverX)) EUB0000711a STK38L. The following applies: at 100 nM.
Assay [12] concerns the target Phosphatidylinositol 4,5-bisphosphate 3-kinase catalytic subunit alpha isoform (Homo sapiens, UniProt P42336). As to conditions: at 1 µM.
The target of assay [13] is T1, Phosphatidylinositol 4,5-bisphosphate 3-kinase catalytic subunit delta isoform (Homo sapiens) (UniProt O00329).
T1 sequence (whole entry): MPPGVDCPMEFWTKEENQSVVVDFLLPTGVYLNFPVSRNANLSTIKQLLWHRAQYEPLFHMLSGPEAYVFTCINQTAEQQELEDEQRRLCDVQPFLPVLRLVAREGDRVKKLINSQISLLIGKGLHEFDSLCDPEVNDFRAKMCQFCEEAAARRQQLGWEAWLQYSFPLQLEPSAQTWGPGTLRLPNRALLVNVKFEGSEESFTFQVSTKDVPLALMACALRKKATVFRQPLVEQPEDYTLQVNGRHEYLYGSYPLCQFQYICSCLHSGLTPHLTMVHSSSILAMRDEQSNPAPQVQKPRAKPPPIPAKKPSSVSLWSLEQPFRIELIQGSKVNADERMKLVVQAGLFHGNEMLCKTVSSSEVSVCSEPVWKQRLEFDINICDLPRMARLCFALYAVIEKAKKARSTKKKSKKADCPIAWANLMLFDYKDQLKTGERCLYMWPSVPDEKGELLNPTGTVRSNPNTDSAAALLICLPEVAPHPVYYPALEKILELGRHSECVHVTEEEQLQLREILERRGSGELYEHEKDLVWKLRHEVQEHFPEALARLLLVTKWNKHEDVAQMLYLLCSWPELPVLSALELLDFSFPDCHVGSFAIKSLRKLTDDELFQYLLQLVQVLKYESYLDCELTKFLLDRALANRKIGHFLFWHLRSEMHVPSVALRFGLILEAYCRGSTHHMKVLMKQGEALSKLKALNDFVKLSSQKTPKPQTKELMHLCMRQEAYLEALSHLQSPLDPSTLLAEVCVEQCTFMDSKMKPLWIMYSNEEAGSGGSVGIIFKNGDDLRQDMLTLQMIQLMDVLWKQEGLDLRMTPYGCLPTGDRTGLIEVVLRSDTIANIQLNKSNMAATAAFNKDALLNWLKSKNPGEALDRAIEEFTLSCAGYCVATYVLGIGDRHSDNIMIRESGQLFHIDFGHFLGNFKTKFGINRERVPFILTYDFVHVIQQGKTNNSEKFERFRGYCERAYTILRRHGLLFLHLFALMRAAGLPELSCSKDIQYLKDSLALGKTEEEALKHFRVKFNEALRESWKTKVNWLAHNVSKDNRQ
As to conditions: at 1 µM.

Assay [14] concerns the target Calcium/calmodulin-dependent protein kinase type IV (Homo sapiens) (UniProt Q16566). The assay can be described thus: Selectivity interaction (Kinase panel) EUB0000209b CAMK4. The following applies: at 10 µM.
Assay [15] concerns the target Protein arginine N-methyltransferase 3 (Homo sapiens, UniProt O60678). The assay can be described thus: Selectivity interaction (HMT panel) EUB0000209b PRMT3. As to conditions: at 1 µM.
In assay [16] the target is T2, Gamma-aminobutyric acid receptor subunit alpha-1 (Homo sapiens) (UniProt P14867).
T2 sequence (whole entry): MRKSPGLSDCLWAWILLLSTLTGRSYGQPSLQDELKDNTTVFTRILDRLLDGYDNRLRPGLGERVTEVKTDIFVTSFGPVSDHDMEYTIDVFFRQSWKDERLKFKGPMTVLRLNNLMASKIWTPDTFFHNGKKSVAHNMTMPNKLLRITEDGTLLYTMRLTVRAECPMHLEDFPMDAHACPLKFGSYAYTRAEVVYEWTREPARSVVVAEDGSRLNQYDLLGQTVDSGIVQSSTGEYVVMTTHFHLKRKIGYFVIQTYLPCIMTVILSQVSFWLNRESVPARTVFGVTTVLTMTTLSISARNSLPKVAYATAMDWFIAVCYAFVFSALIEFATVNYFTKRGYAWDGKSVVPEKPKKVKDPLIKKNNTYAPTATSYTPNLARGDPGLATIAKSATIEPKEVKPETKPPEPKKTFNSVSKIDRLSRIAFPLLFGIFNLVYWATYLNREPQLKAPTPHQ
Briefly: Selectivity interaction (GPCR panel (PDSP screen)) EUB0000329a GABRA1. As to conditions: at 10 µM.

The target of assay [17] is Adenosine receptor A2a (Homo sapiens) (UniProt P29274). Briefly: Selectivity interaction (Enzyme panel (kinases, GPCRs, HDACs, phosphatases)) EUB0000329a ADORA2A. The following applies: at 10 µM.
The target in assay [18] is T3, Serine/threonine-protein kinase ULK2 (Homo sapiens) (UniProt Q8IYT8).
T3 sequence (whole entry): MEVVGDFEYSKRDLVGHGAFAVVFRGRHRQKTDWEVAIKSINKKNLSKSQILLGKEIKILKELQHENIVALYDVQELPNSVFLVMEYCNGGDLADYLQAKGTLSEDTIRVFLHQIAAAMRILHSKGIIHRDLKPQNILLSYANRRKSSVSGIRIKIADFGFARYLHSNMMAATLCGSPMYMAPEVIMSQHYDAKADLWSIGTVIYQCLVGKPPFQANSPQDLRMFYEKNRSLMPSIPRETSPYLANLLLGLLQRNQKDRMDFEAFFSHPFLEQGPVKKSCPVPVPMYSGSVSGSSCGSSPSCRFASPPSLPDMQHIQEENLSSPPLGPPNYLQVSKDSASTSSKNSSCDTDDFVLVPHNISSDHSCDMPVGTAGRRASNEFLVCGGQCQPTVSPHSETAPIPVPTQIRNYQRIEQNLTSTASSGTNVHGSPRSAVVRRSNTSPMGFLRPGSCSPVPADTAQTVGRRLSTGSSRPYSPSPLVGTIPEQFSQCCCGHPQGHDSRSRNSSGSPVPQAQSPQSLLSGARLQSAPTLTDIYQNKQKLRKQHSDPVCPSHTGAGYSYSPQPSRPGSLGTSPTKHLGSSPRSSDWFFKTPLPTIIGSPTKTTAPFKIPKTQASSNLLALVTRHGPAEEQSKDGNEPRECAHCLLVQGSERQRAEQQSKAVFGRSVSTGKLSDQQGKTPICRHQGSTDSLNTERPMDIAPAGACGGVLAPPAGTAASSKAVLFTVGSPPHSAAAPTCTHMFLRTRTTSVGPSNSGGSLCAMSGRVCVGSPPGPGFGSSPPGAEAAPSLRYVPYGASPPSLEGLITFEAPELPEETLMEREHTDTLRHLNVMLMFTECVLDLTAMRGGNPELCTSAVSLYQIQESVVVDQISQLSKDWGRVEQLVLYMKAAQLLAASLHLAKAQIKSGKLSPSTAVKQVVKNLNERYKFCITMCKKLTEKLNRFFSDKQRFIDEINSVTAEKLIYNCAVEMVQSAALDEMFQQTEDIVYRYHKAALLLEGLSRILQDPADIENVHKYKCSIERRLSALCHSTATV
Briefly: Selectivity interaction (Kinase panel (International centre for protein kinase profiling)) EUB0000627a ULK2. The following applies: at 1 µM.

For assay [19], the target named is Serine/threonine-protein kinase 33 (Homo sapiens, UniProt Q9BYT3). Briefly: Selectivity interaction (Kinase panel (International centre for protein kinase profiling)) EUB0000627a STK33. The following applies: at 1 µM.
Assay [20] concerns the target Protein-tyrosine kinase 6 (Homo sapiens) (UniProt Q13882). As to conditions: at 1 µM.

Chain of Mast/stem cell growth factor receptor Kit (P10721 whole entry): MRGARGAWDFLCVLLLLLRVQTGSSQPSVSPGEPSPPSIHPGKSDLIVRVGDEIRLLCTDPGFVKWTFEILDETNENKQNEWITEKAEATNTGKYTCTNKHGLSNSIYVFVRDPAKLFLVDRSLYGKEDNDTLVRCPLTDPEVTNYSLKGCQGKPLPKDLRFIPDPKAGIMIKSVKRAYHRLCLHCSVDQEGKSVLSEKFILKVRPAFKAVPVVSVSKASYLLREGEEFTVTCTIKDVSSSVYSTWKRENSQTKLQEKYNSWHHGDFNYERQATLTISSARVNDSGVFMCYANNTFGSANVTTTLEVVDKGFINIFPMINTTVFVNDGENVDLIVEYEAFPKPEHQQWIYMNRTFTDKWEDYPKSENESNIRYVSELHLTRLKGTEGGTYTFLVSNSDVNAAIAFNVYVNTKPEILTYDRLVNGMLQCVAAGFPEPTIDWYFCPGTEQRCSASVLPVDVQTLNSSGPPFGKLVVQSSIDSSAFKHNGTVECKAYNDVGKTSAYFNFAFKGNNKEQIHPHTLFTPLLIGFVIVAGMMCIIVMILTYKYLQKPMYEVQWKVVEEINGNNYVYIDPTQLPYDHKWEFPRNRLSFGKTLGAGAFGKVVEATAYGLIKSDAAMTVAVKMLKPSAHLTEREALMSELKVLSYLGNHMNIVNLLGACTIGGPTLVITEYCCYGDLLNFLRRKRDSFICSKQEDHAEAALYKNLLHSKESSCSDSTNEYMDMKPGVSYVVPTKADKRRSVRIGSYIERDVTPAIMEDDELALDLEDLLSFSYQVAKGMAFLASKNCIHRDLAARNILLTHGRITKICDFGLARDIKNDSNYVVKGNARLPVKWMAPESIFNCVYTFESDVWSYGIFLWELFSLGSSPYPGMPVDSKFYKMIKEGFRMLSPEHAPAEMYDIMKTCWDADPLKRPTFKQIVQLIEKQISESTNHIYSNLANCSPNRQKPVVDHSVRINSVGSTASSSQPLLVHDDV
Chain of Serine/threonine-protein kinase Nek1 (Homo sapiens) (Q96PY6 whole entry): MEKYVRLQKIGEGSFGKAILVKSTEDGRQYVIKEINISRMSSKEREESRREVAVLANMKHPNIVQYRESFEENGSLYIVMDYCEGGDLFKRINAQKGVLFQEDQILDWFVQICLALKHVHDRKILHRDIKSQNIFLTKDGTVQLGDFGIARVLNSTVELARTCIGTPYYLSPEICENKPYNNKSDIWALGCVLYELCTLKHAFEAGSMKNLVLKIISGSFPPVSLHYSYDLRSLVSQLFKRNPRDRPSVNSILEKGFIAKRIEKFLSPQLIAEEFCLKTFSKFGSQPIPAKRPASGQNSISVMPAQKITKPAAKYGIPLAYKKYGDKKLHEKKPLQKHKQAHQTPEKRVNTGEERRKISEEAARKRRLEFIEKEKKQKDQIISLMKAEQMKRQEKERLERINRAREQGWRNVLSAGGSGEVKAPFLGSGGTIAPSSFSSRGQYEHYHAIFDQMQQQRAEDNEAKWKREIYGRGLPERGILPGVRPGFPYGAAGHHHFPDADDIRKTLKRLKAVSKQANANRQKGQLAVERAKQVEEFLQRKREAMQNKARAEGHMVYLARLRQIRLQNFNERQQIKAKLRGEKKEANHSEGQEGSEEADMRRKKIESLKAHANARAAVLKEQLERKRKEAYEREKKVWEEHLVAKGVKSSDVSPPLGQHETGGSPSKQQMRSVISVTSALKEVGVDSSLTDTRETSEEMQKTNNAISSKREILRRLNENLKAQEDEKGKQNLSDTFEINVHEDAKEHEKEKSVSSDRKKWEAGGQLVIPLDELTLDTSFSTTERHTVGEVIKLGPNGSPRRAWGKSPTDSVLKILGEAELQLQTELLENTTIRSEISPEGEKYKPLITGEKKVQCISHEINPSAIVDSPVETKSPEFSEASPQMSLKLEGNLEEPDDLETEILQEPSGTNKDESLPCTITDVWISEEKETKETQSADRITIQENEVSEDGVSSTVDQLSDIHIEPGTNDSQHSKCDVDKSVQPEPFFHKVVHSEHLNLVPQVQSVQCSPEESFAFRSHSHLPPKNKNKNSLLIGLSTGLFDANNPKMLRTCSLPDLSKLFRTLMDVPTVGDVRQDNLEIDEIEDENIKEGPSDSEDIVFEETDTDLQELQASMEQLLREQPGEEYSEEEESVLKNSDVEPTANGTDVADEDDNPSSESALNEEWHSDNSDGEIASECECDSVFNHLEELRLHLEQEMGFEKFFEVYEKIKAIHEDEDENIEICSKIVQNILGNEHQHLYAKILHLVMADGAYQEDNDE
Chain of Mast/stem cell growth factor receptor Kit (Homo sapiens), P10721 [V559D] (P10721 whole entry V559D): as the sequence (P10721 whole entry) above, with V559D counted along it
Chain of Serine/threonine-protein kinase 33 (Q9BYT3 whole entry, looked up): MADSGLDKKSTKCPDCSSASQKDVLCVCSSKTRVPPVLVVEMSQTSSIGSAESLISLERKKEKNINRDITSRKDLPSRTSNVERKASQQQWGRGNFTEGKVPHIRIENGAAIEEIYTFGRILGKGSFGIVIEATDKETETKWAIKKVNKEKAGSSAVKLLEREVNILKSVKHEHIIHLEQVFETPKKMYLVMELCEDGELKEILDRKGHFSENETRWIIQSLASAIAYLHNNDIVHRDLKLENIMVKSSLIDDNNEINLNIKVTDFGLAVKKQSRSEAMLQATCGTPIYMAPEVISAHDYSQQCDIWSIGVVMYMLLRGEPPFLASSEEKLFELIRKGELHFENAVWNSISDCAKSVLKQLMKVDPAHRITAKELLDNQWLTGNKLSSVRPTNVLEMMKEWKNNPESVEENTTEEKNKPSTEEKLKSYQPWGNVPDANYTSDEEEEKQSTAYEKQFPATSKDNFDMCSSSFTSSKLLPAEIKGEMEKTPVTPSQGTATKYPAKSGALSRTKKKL
Chain of Serine/threonine-protein kinase 38-like (Q9Y2H1 2-464 limits assumed): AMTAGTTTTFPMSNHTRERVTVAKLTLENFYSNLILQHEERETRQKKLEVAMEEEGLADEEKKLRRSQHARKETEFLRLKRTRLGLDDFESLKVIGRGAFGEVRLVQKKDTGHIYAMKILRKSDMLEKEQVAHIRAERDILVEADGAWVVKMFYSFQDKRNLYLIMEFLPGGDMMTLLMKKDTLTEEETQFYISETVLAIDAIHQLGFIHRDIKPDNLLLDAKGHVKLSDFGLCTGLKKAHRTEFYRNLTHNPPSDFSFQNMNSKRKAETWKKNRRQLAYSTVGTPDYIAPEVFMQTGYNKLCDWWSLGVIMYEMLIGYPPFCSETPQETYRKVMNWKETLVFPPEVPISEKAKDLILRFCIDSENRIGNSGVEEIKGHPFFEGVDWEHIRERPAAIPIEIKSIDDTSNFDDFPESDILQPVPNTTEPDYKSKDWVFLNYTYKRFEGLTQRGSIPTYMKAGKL
Chain of Protein-tyrosine kinase 6 (Homo sapiens) (Q13882 whole entry, looked up): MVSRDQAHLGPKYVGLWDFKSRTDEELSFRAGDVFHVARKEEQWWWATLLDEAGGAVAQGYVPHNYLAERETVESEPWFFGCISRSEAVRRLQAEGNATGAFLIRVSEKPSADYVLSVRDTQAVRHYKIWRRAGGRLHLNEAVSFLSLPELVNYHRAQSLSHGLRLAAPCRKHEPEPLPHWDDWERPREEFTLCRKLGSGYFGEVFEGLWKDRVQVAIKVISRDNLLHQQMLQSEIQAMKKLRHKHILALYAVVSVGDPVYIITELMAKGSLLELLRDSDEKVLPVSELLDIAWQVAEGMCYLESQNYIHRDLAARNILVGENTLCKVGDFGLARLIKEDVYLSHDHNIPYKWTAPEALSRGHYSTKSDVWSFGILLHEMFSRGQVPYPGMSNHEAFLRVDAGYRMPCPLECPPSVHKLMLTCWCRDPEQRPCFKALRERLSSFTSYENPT
Chain of Phosphatidylinositol 4,5-bisphosphate 3-kinase catalytic subunit alpha isoform (P42336 whole entry, canonical isoform): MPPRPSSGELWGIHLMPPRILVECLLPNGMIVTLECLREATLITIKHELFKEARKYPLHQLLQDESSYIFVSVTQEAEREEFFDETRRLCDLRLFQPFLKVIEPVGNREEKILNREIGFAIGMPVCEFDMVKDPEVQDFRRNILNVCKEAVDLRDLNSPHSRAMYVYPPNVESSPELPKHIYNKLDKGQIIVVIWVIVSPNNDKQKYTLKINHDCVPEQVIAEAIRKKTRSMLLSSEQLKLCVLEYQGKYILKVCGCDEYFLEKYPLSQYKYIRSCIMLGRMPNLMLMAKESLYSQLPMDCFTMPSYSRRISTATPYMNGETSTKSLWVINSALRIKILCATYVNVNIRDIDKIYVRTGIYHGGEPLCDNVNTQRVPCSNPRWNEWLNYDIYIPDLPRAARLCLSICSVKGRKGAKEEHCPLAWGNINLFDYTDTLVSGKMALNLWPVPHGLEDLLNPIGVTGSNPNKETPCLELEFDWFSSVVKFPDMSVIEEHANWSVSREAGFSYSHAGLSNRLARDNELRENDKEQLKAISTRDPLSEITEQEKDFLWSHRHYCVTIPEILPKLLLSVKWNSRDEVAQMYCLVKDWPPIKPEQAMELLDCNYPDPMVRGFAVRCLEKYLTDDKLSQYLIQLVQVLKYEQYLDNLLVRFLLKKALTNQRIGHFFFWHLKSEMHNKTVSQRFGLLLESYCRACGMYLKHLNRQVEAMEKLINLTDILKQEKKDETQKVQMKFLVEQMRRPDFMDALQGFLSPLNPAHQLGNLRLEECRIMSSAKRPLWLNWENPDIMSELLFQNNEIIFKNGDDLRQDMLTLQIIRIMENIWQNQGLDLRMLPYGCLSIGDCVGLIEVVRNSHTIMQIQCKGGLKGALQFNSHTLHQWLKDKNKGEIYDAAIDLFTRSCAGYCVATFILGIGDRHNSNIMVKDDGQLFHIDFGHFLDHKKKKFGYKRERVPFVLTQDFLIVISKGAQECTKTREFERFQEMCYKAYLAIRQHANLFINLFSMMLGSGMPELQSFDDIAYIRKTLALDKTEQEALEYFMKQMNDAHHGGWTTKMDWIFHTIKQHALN

Turning to `Nc1c(C(=O)NCc2ccc(C(=O)NCCCC3CCCCC3)cc2)cnn1-c1ccccc1`, the % of control in assay [1] is 3%; in [2], 31%; in assay [3] it was 8.8%; in assay [4] it was 31%; in assay [5] it was 29%; in assay [6], 3%. Moreover, the % of control in assay [7] was determined as 7.7%.
Consider `CN(C)C(=O)c1cc2cnc(Nc3ccc(N4CCNCC4)cn3)nc2n1C1CCCC1`, for which the % of control in assay [8] came to 5.8%.
Turning to `O=C(NCCCC1CCCCC1)c1ccc(CNC(=O)c2cnn(-c3ccccc3)c2C(F)(F)F)cc1`, the % of control was 58% in [9], 57% in assay [10] and 20% in assay [11].
As to `Cc1nc(-c2cn3c(n2)-c2ccc(-c4cnn(C(C)(C)C(N)=O)c4)cc2OCC3)n(C(C)C)n1`, the results for the % of control in assay [12] and in [13] were 98.6% and 97.9%, respectively.
Take `CCCc1cc(C)[nH]c(=O)c1CNC(=O)c1cc(-c2ccc(N3CCN(C(C)C)CC3)nc2)cc2c1cnn2C(C)C`: the % of inhibition in assay [14] is 20%. This compound showed a % activity remaining in assay [15] of more than 70%.
For `O=C(NNS(=O)(=O)c1ccccc1F)c1cc(F)cc(-c2ccccn2)c1`, the % of inhibition is 75.7% in assay [16] and 49% in [17].
Regarding `CCC(=O)Nc1cccc(Oc2nc(Nc3ccc(N4CCN(C)CC4)cc3OC)ncc2Cl)c1`, the values for the % of kinase activity in assay [18] and in assay [19] were 37% and 33%, respectively.
The compound `C=CC(=O)N1CCC([C@@H]2CCNc3c(C(N)=O)c(-c4ccc(Oc5ccccc5)cc4)nn32)CC1` showed a % of inhibition in assay [20] of 99%.
